# In publication PMC3591530 (Molecular Imaging and Biology, 2012):
# Where a SMILES comes first, the peptide text is derived from it. [ ]: non-standard residue; d: D form. Tyr(3-I) = N[C@@H](Cc1ccc(O)c(I)c1)C(=O)O
# How the values were obtained:
# [1] = target: T1, extracellular domain of human PDGFRβ (Homo sapiens, UniProt P09619); assay type: binding; settings: pH 7.4
# T1 construct: The extracellular domain of PDGFRβ was recombinantly synthesized using the Flp-In system; Fc (Fcγ from pSEC-EGP-2-Fcγ vector) (C); made in house; host or cells: Flp-In-293 human embryonic kidney cells
# Description: Binding of ^125I-labeled PDGFR-P1 was investigated on immobilized extracellular domain of human PDGFRβ, EGFR, and FGFR. The target proteins were incubated at a concentration of 25 nM in 96-well Maxisorp^TM plates (Nunc GmbH & Co. KG, Germany) for 24 h and the plates were washed thrice with 100 μl PBS pH 7.4. ^125I-labeled PDGFR-P1 was incubated with the target in 100 μl PBS pH 7.4 for 60 min. The unbound activity was removed by washing with 300 μl ice-cold PBS pH 7.4. Bound radioligand was determined through degradation with 100 μl NaOH 0.3 M and radioactivity measurement. Radioligand binding was calculated as percentage applied dose.
# BxPC3 cells = assay type: binding, human; settings: 24 h
# Description: (§1) Three hundred thousand BxPC3, MCF7, PDGFRβ-tr-HEK, CaIX-tr-HEK, or HEK293wt cells were cultivated in six-well plates at 37°C for 24 h. Cells were blocked with RPMI 1640 containing 1% milk powder and the medium was replaced with 1 ml fresh medium (without FCS) containing 0.5–1.5 × 10^6 cpm ^125I-labeled peptide. After incubation at 37°C for various time periods (10 min to 6 h), the medium was removed and the cells were washed with PBS. Subsequently, cell lysis was performed with 0.5 ml NaOH 0.3 M and the bound radioactivity was measured with a γ-counter and calculated as percentage applied dose per 10^6 cells. Specific binding was determined through co-incubation of the radioligand with the unlabeled PDGFR-P1 peptide at various concentrations (10^−4 to 10^−10 M). A dodecapeptide identified with phage display by panning against the extracellular domain of human carbonic anhydrase IX (CaIX-P1) as well as a derivative of a dodecapeptide identified with phage display on prostate carcinoma cells (DUP-1–9) were used as negative control competitors.
# PDGFR-tr-HEK cells = experiment: In vitro binding kinetics on PDGFRβ-transfected HEK293 cells; parameters: species or system human; settings: kinetic studies, vs HEK293wt and CaIX-tr-HEK cells, 37°C, serum-free medium, p < 0.05
# Description: as §1
# Stability in human serum = assay type: in vitro ADME; settings: 37°C, HPLC analysis
# Description: The stability of PDGFR-P1 was investigated in human serum. ^125I-labeled peptide was incubated at 37°C in human serum. At time points varying from 5 min to 20 h, aliquots were taken, mixed with equal volume acetonitrile, to precipitate serum proteins and centrifuged for 5 min at 13,000 rpm. Serum degradation products were determined by HPLC analysis of the supernatant.
# BxPC3 tumors = experiment: in vivo; parameters: species or system Balb/c nu/nu mice; settings: female, Balb/c nu/nu, mouse, iv, 1 MBq, 0.25 h
# Description: (§2) Organ distribution studies were carried out in 9-week-old female Balb/c nu/nu mice (Charles River WIGA), carrying subcutaneously transplanted human pancreatic cancer BxPC3 tumors. Tumor implantation was performed through injection of a cell suspension (4 × 10^6 cells in OPTI-MEM) (Gibco, Invitrogen Life Technologies) into the mouse trunk. After the tumors were grown to a size of approximately 1.0 cm^3, 1 MBq of ^131I-labeled PDGFR-P1 was injected into the tail vein, and at 15 min p.i. the animals were euthanized. Tumor, blood, and healthy tissues were removed, weighed, and measured with a γ-counter (LB […]; Berthold Technologies). Organ uptake calculation was performed as percentage injected dose per gram tissue (% ID/g). To avoid bias due to blood background radioactivity, uptake in blood-free organs was determined with perfusion experiments. Within these experiments, blood was removed through a catheter in the ascending aorta of the anesthesized animal and perfusion with approximately 25 ml 0.9% NaCl was performed via a cut in the animal liver. After perfusion, samples of tumor and organs were removed and measured as described. All animal experiments were carried out in conformity with the German and European laws for animal protection.
# in vivo = experiment: in vivo; parameters: species or system Balb/c nu/nu mice; settings: female, Balb/c nu/nu, mouse, iv, 1 MBq, total radioactivity; for tissue to tissue ratio at 0.25 h: Tumor-to-organ ratio
# Description: as §2
# human serum = settings: 37°C, up to 20 h
# T1 sequence (P09619 33-532 limits assumed): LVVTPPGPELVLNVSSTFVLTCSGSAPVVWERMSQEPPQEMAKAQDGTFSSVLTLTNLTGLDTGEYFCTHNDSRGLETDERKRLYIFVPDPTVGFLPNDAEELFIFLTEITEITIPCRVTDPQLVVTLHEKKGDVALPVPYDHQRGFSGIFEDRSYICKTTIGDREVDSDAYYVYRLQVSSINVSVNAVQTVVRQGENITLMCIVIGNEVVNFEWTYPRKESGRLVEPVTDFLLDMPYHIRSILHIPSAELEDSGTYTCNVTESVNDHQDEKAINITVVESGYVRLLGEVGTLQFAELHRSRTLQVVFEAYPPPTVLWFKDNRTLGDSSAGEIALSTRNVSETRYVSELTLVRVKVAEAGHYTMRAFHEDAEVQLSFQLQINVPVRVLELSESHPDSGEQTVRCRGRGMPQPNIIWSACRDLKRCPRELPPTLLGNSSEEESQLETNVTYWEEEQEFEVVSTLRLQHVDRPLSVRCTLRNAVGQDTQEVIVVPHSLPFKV
molecule,measurement,setting,value
CC[C@H](C)[C@H](N)C(=O)N1CCC[C@H]1C(=O)N[C@@H](CC(C)C)C(=O)N1CCC[C@H]1C(=O)N1CCC[C@H]1C(=O)N1CCC[C@H]1C(=O)N[C@@H](CO)C(=O)N[C@@H](CCCNC(=N)N)C(=O)N1CCC[C@H]1C(=O)N[C@@H](Cc1ccccc1)C(=O)N[C@@H](Cc1ccccc1)C(=O)N[C@@H](CCCCN)C(=O)N[C@@H](Cc1ccc(O)cc1)C(N)=O [PDGFR-P1] (H-IPLPPPSRPFFKY-NH2),Binding of the radioligand (percentage applied dose),[1],about 18%
same,IC50,BxPC3 cells,1400 nM
CC[C@H](C)[C@H](N)C(=O)N1CCC[C@H]1C(=O)N[C@@H](CC(C)C)C(=O)N1CCC[C@H]1C(=O)N1CCC[C@H]1C(=O)N1CCC[C@H]1C(=O)N[C@@H](CO)C(=O)N[C@@H](CCCNC(=N)N)C(=O)N1CCC[C@H]1C(=O)N[C@@H](Cc1ccccc1)C(=O)N[C@@H](Cc1ccccc1)C(=O)N[C@@H](CCCCN)C(=O)N[C@@H](Cc1ccc(O)c(I)c1)C(N)=O [^125I-labeled PDGFR-P1] (H-IPLPPPSRPFFK[Tyr(3-I)]-NH2; N-terminus assumed),Binding on PDGFR-tr-HEK cells compared to negative controls,PDGFR-tr-HEK cells,significantly increased binding
same,Degradation product analysis,Stability in human serum,cleavage of the C-terminal tyrosine over time
same,half-life,"Stability in human serum; aliquots 5 min to 20 h, acetonitrile precipitation",4 min
CC[C@H](C)[C@H](N)C(=O)N1CCC[C@H]1C(=O)N[C@@H](CC(C)C)C(=O)N1CCC[C@H]1C(=O)N1CCC[C@H]1C(=O)N1CCC[C@H]1C(=O)N[C@@H](CO)C(=O)N[C@@H](CCCNC(=N)N)C(=O)N1CCC[C@H]1C(=O)N[C@@H](Cc1ccccc1)C(=O)N[C@@H](Cc1ccccc1)C(=O)N[C@@H](CCCCN)C(=O)N[C@@H](Cc1ccc(O)c(I)c1)C(N)=O [^131I-labeled PDGFR-P1] (H-IPLPPPSRPFFK[Tyr(3-I)]-NH2; N-terminus assumed),"Tumor-to-organ ratio, Brain",BxPC3 tumors,9.083
same,"Tumor-to-organ ratio, Intestinum",BxPC3 tumors,1.321
same,"Tumor-to-organ ratio, Kidney",BxPC3 tumors,0.379
same,"Tumor-to-organ ratio, Muscle",BxPC3 tumors,2.530
same,"Tumor-to-organ ratio, Spleen",BxPC3 tumors,1.601
same,tissue uptake at 0.25 h,in vivo; Activity concentration in blood,5.4 %ID/g
same,tissue uptake at 0.25 h,in vivo; Activity concentration in kidney,10.6 %ID/g
same,tissue uptake at 0.25 h,in vivo; Tumor accumulation,3.2 %ID/g
same,tissue to tissue ratio at 0.25 h,in vivo; Brain,8.7
same,tissue to tissue ratio at 0.25 h,in vivo; Intestinum,1.43
same,tissue to tissue ratio at 0.25 h,in vivo; Kidney,0.299
same,tissue to tissue ratio at 0.25 h,in vivo; Muscle,2.15
same,tissue to tissue ratio at 0.25 h,in vivo; Spleen,1.42
IPLPPPSRPFFKY-NH2,cleaved bond,human serum,K-Y
same,fragment found,human serum,Y-OH
